The results in this text go back to article PMC6021032, “Antimycobacterial activity of nitrogen heterocycles derivatives: 7-(pyridine-4-yl)-indolizine derivatives. Part VII^8–12” (Journal of Enzyme Inhibition and Medicinal Chemistry, 2017).

The subject of one data set is M. tuberculosis H37Rv. The experiment in a line: Cycle 2 repeat of MIC, IC50, IC90 under aerobic conditions (lower starting concentrations). It is filed as cell-based, Mycobacterium tuberculosis. The settings on record: Mycobacterium tuberculosis, revaluation.
A further data set has as its system Mycobacterium avium. The experiment in a line: MIC against nontuberculous mycobacteria (Alamar blue). It is filed as cell-based. The settings on record: M. avium. On the technique in general: The colour change of resazurin is a common sign of viable cells or microbes.
In data set [1] the test system is THP-1 cell line infected with Mtb. The experiment in a line: Intracellular activity assay, luminescence. It is filed as cell-based, Mycobacterium tuberculosis. The settings on record: Mycobacterium tuberculosis, Mtb-infected THP-1 cells, 72 h. How it is done: Since the overall efficacy of any anti TB drug will be improved by its ability to traffic into the macrophage phagosome containing replicating bacteria, we evaluated the intracellular activity of compounds[24]. This was measured by using THP-1 cell line infected with Mtb. Infected cells were exposed to compounds for 72 h and viable bacterial counts were measured using luminescence as a measure of intracellular growth.
Assay (Promega) which uses ATP as an indicator of cell viability. Relative luminescent units (RLU) were measured using a Biotek Synergy 4 plate reader. The dose response curve was fitted using the Levenberg–Marquardt algorithm. The IC50 was defined as the compound […]
Intracellular Activity Assay
The activity of compounds against intracellular bacteria was determined by measuring viability in infected THP-1 cell after 3 days in the presence of test compounds. Compounds were prepared as 10-point three-fold serial dilutions in DMSO. The highest concentration of […]
THP-1 cells were cultured in complete RPMI and differentiated into macrophage-like cells using 80 nM PMA overnight at 37°C, 5% CO2. THP-1 cells were infected with a luminescent strain of H37Rv (which constitutively expresses luxABCDE) at a multiplicity of infection of 1 and incubated overnight at 37°C, 5% CO2. Infected cells were recovered using Accutase/EDTA solution, washed twice with PBS to remove extracellular bacteria and seeded into assay pates. Compound dilutions were added to a final DMSO concentration of 0.5%.
Assay plates were incubated for 72 h at 37°C, 5% CO2. Each run included isoniazid as a control. Relative luminescent units (RLU) were measured using a Biotek Synergy 2 plate reader. The dose response curve was fitted using the Levenberg–Marquardt algorithm. The […]
inhibition of growth respectively.
3. Cycle 3 – Absorption, distribution, metabolism, excretion and toxicity (ADMET)
3.1. Plasma Protein Binding Assay
Compounds were added to human plasma at a fixed concentration of 5 µM. The mixture was dialyzed in a RED device (Rapid Equilibrium Dialysis, Pierce) against PBS and incubated on an orbital shaker for 4 h at 37 °C. Aliquots from plasma and PBS sides were collected; an equal volume of PBS was added to the plasma sample, and an equal volume of plasma was added to the PBS sample. Three volumes of methanol (containing the internal binding standard propranolol) was added to precipitate the proteins and release the compound.
Each compound was tested in duplicate. Samples were centrifuged, the supernatant was […]

Data set [2] can be described thus: Caco-2 permeability assay. The conditions noted are these: human, Caco-2. Here is the method:
The Caco-2 cell layer permeability assay is widely used as a more predictive in vitro model of absorption through the intestinal epithelium. […] For B–A permeability, test compound was added to the basal side of the Caco-2 monolayer and the transport of the compound to the apical side monitored. The amount of compound present in each compartment was quantified by LC-MS/MS.
recovered and analyzed by LC-MS/MS.
3.2. Caco-2 Permeability Assay
feeding at 2-day intervals.
Each experiment included the
contained transport buffer at pH 7.4.
3.3. Cytochrome P450 Inhibition Assay
and was < 0.2%. Samples were run in duplicate. Compounds were incubated with human liver
(Passage across Caco-2 layers is used to estimate intestinal permeability.)

The next data set concerns the target T1, CYP3A4 (Homo sapiens, UniProt P08684).
T1 construct: Compounds were incubated with human liver; from tissue; host or cells: human liver microsomes
Kind of data set: Cytochrome P450 inhibition in human liver microsomes. Type of data set: in vitro ADME.

Another data set concerns the target T2, CYP2C9 (Homo sapiens, UniProt P11712).
T2 construct: Compounds were incubated with human liver; from tissue; host or cells: human liver microsomes
The data set is described as above. Type of data set: in vitro ADME.

The target in the next data set is T3, CYP2D6 (Homo sapiens, UniProt P10635).
T3 construct: Compounds were incubated with human liver; from tissue; host or cells: human liver microsomes
T3 sequence (P10635 whole entry): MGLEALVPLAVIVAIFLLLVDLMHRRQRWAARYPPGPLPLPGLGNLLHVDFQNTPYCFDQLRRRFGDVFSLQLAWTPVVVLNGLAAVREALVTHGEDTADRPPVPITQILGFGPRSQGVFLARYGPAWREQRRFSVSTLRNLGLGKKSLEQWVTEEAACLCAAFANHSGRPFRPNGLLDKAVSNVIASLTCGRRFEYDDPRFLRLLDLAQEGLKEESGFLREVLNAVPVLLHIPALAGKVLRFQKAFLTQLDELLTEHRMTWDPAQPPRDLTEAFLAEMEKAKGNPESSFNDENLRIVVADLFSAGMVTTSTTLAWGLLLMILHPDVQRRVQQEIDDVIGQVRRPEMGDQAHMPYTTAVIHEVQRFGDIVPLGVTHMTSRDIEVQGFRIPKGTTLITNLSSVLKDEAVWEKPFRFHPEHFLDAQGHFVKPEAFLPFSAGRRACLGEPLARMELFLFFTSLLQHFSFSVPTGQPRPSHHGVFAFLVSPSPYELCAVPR
Described as above. Type of data set: in vitro ADME.

The next data set addresses T4, CYP2C8 (Homo sapiens, UniProt P10632).
T4 construct: Compounds were incubated with human liver; from tissue; host or cells: human liver microsomes
T4 sequence (P10632 1-490): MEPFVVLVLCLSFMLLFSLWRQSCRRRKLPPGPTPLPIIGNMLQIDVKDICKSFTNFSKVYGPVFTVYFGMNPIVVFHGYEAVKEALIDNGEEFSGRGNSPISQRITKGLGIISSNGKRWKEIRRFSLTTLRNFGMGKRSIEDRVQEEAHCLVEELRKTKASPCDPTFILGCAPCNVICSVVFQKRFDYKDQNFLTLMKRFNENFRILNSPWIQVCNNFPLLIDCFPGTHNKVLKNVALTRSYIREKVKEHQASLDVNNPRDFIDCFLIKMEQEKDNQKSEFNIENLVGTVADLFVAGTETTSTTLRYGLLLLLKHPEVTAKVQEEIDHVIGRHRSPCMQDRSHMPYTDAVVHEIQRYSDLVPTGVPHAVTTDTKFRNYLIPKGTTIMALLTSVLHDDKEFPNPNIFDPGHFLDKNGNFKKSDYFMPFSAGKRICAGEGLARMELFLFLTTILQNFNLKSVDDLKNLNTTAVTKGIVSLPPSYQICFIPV
The data set is described as above. Type of data set: in vitro ADME.

Another data set addresses T5, CYP2B6 (Homo sapiens, UniProt P20813).
T5 construct: Compounds were incubated with human liver; from tissue; host or cells: human liver microsomes
T5 sequence (P20813 1-491): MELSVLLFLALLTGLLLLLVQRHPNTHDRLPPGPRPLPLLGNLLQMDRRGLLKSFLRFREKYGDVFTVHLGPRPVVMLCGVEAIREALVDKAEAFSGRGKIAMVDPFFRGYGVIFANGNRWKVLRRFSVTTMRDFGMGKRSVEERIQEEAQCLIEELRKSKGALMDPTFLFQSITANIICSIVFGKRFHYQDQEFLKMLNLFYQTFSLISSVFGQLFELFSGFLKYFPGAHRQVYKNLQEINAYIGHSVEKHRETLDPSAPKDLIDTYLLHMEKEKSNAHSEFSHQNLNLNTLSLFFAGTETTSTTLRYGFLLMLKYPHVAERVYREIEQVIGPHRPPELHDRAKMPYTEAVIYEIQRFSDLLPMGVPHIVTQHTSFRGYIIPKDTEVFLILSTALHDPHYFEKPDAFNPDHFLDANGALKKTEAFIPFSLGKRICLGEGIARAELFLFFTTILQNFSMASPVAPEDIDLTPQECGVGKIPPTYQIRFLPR
The data set is described as above. Type of data set: in vitro ADME.

The nature of a further data set: in vitro. The settings on record: human. The text has this:
The stability of compound is expressed as a function of time[41]^,[42]
3.4. In vitro Microsomal Stability Assay
compound to detect NADPH-free degradation. Verapamil and dextromethorphan were
included as control compounds.

Where two headings read alike, the source gives them in different places. A value given as a limit tells only on which side of the number the result lay.

In general, IC50 refers to the concentration that gives 50% inhibition. In general, IC90 refers to the concentration at which the effect reaches the 90% level. As a reminder, the MIC is the smallest concentration in the dilution series that meets the test's criterion for growth inhibition. A word on the Papp B→A: it is the apparent permeability from the basolateral to the apical side of a cell layer. The term efflux ratio denotes the permeability from basolateral to apical divided by that in the opposite direction, in the common usage. Usually microsomal CLint stands for the rate of metabolic loss divided by the concentration. Higher therefore signals faster metabolism. For orientation: half-life means the time needed for the level to fall by half in the phase considered. A higher half-life goes with slow loss.

T1 sequence (P08684 whole entry): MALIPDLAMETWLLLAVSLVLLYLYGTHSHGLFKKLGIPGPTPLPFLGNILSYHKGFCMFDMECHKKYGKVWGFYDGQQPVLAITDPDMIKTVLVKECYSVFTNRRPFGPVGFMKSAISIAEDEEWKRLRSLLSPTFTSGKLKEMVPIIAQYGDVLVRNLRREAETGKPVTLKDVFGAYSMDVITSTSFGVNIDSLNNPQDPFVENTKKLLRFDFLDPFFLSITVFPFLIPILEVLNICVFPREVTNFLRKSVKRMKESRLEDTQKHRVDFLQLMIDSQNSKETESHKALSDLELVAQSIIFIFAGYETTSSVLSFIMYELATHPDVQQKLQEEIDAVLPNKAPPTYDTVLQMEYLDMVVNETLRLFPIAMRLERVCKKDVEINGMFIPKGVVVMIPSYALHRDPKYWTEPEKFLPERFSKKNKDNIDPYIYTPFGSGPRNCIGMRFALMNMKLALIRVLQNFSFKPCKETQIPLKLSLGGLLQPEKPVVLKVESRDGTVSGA
T2 sequence (P11712 whole entry): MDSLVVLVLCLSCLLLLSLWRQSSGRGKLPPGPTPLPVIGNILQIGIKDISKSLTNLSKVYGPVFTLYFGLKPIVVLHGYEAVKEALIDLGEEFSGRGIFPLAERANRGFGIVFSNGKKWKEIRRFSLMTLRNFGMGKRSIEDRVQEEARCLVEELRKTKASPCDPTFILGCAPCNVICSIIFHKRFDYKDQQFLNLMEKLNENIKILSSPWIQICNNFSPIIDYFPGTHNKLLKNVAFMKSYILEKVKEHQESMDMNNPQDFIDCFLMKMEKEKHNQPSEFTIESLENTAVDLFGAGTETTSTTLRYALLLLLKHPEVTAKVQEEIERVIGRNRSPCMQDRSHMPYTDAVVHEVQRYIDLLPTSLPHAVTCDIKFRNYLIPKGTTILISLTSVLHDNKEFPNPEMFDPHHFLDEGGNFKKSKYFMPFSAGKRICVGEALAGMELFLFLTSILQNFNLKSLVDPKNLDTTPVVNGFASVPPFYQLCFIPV

As for `CCOC(=O)c1cc(C(=O)c2ccc(Cl)cc2)n2ccc(-c3cc[n+](CC(=O)c4ccc(C)cc4)cc3)cc12` [Compound 6i], the half-maximal inhibitory concentration (IC50) in the data set on M. tuberculosis H37Rv (aerobic) is 9.8 µM; in data set [1] (read-out: IC50 intracell) it was 10 µM; at CYP3A4 (probe substrate midazolam, read-out: IC50 CYP3A4-Midazolam), 0.48 µM; at CYP3A4 (probe substrate testosterone, read-out: IC50 CYP3A4-Testosterone), 0.081 µM; on CYP2C9, above 5 µM; at CYP2D6, above 5 µM. In addition, the IC50 against CYP2C8 and at CYP2B6 was above 5 µM each time. For the same compound, the 90% effect concentration (IC90) was determined as 17 µM in the data set with M. tuberculosis H37Rv (aerobic) and 48 µM in data set [1] (read-out: IC90 intracell). The MIC in the data set on M. tuberculosis H37Rv (repeated at lower starting concentrations, read-out: MIC aerobic condition) is 16 µM; against Mycobacterium avium it was 50 µM; against Mycobacterium avium (Mycobacterium avium), 50 µM. In data set [2], this compound registered an apparent permeability from basolateral to apical (Papp B→A) of 1.3 ×10⁻⁶ cm/s. Also, the efflux ratio in [2] worked out at 1.7. On CYP3A4 (probe substrate midazolam), the “IC50 CYP3A4-Midazolam” value is “moderate inhibition”. The “IC50 CYP3A4-Testosterone” value on CYP3A4 (probe substrate testosterone) was “high inhibition”. In addition, the “NADPH-dependent CLint” value in “in vitro” (s9) is listed as “very highly cleared”. The microsomal CLint at 1 μM in the data set “in vitro” (s9, NADPH-dependent CLint) is 369 µL/min/mg; in the data set “in vitro” (s9, NADPH-free CLint), below 12.8 µL/min/mg. Further, the half-life at 1 μM is 6.3 min in “in vitro” (s9, NADPH-dependent T1/2) and above 180 min in “in vitro” (s9, NADPH-free T1/2).
